In general, IC50 refers to the concentration that gives 50% inhibition.

For assay [1], the system named is PC-3. In words: Cytotoxicity against human PC3 cells after 48 hrs by MTT assay. It is filed as functional, cell-based. The conditions noted are these: PC-3, 48 h.
The test system of assay [2] is HepG2. In words: Cytotoxicity against human HepG2 cells by MTT assay. It is filed as functional, cell-based. On the technique in general: Formazan colour is commonly taken as a measure of viable cells.
Assay [3] relates to MCF7. In words: Cytotoxicity against human MCF7 cells by MTT assay. It is filed as functional, cell-based.
Assay [4] relates to A549. In words: Cytotoxicity against human A549 cells by MTT assay. The format is functional, cell-based.
Assay [5] concerns MCF7. In words: Cytotoxicity against human MCF7 cells after 48 hrs by MTT assay. The format is functional, cell-based.
Assay [6] deals with NB-4. In words: Cytotoxicity against human NB4 cells after 48 hrs by MTT assay. It is filed as functional, cell-based. The conditions noted are these: NB-4, 48 h.
Assay [7] concerns A549. In words: Cytotoxicity against human A549 cells after 48 hrs by MTT assay. The format is functional, cell-based.
Assay [8] has as its system SH-SY5Y. In words: Cytotoxicity against human SH-SY5Y cells after 48 hrs by MTT assay. The format is functional, cell-based.
The test system of assay [9] is L5178Y. In words: Cytotoxicity against mouse L5178Y cells by MTT assay. The format is functional, cell-based.
For assay [10], the system named is L02. In words: Cytotoxicity against human L02 cells by MTS assay. It is filed as cell-based.
Assay [11] concerns SH-SY5Y. In words: Cytotoxicity against human SH-SY5Y cells by MTT assay. It is filed as functional, cell-based.
Assay [12] relates to MCF7. In words: Cytotoxicity against human MCF7 cells after 72 hrs by MTT assay. It is filed as functional, cell-based. The conditions noted are these: MCF7, 72 h.
Assay [13] can be described thus: Cytotoxicity against human KATO III cells after 72 hrs by MTT assay. It is filed as functional, cell-based.
The subject of assay [14] is A549. In words: Cytotoxicity against human A549 cells after 72 hrs by MTT assay. The conditions noted are these: A549, 72 h. The format is functional, cell-based.
For assay [15], the system named is HepG2. In words: Cytotoxicity against human HepG2 cells after 72 hrs by MTT assay. It is filed as functional, cell-based. The conditions noted are these: HepG2, 72 h.
Setting [16] is: Homo sapiens, MCF7, 48 h, read-out: IC50.
The mark [17] stands for this setting: Homo sapiens, A549, 48 h, read-out: IC50.

Structures are written as SMILES.

`C[C@H]1C(=O)N2c3ccccc3[C@@]3(O)C[C@H](n4cnc5ccccc5c4=O)C(=O)N1[C@@H]23` gave an IC50 in assay [1] of 32.2 µM.

Consider `COc1cc(O)c2c(c1)C=C([C@H](O)[C@H](O)C(Cl)Cl)OC2O` (stereo partly specified), for which the values for the concentration for half-maximal inhibition (IC50) in [2] and in assay [3] were 39.6 µg/mL and 17.8 µg/mL, respectively.

For `COc1c(O)cc2c(c1CC=C(C)C)C=C(C)OC2`, the IC50 stood at 9.4 µM in assay [4] and 8.8 µM in [2].

On to `CC(C)[C@@H]1CC[C@](C)(O)C2=C1C(=O)[C@](C)(O)C[C@@H]2O`, for which the figures for the IC50 in assay [4] and in assay [3] were 0.2 µM and 5.9 µM, respectively.

In the case of `CC(C)=CCc1cc2c3c(c1)N(C)C(=O)[C@]31O[C@]3(O)[C@@H](O)C(=O)N4C(C)(C)[C@H](C2)[C@H]1[C@@]43O`, the IC50 in [5] (setting [16]), in [6], in [7] (setting [17]), in assay [8] and in assay [1] was 1.2 to 4.2 µM each time.

For `COc1cc(O)c2c(c1)C(=O)[C@@H]1[C@H](C[C@@H](O)[C@@](C)(O)[C@@H]1O)C2=O`, in assay [9], the 50% inhibitory concentration (IC50) was found to be 3.4 µM.

As to `COC(=O)[C@]1(Cc2cc(CC=C(C)C)c(O)c(OC)c2)OC(=O)C(O)=C1c1ccc(O)cc1`, the concentration for half-maximal inhibition (IC50) was determined as 3.6 µM in assay [2] and 4.2 µM in assay [10].

In the case of `COc1ccc2c(c1CC=C(C)C)C=C(C)OC2`, the half-inhibitory concentration (IC50) in assay [2] came to 8.2 µM; in assay [11], 6.8 µM.

Take `COc1cc(O)c2c(=O)cc(C)oc2c1[C@@H]1C[C@@H](OC)C(=O)O1`: the results for the IC50 in [12] and in [13] were 19.3 µM and 23.3 µM, respectively.

Regarding `CC(=O)Cc1cc2c(CCCO)cc(O)cc2c(=O)o1`, the half-inhibitory concentration (IC50) in assay [5] (setting [16]), in assay [6], in assay [7] (setting [17]), in [8] and in assay [1] was 2.8 to 8.8 µM in each case.

Consider `CC1=C2C(=C[C@H](O)C(O)=C2O)[C@H](C)[C@@H](C)O1`, for which the half-inhibitory concentration (IC50) amounted to 23.7 µM in assay [14] and 35.7 µM in assay [15].

`COC(=O)c1cccc2oc3cc(C)cc(O[C@@H]4O[C@H](CO)[C@@H](O)[C@H](O)[C@H]4O)c3c(=O)c12`: the 50% inhibitory concentration (IC50) in assay [10] was found to be 6.8 µg/mL.

In the case of `C[C@@H](O)[C@@]1(O)C(=O)N2C(C)(C)[C@@H]3Cc4cccc5c4[C@@]4(O[C@@]1(O)[C@@]2(O)[C@H]34)C(=O)N5C`, the 50% inhibitory concentration (IC50) in [5] (setting [16]), in [6], in [7] (setting [17]), in assay [8] and in assay [1] was 1.2 to 4.2 µM in each case.

In assay [9], `COc1cc(O)c2c(c1)C(=O)C1=C(C2=O)[C@H](O)[C@@H](O)[C@@](C)(O)C1` came in with an IC50 of 9.4 µM.

In assay [13], `C[C@H]1[C@@H](O)CCC(C)(C)[C@@]12CC=C(C(=O)O)CC2` registered a half-maximal inhibitory concentration (IC50) of 25.3 µM.

Take `C[C@H]1[C@H](O)CCC(C)(C)[C@@]12CC=C(C(=O)O)CC2`: in assay [13], 35 µM corresponded to half-maximal inhibition (IC50).

As for `COc1cc(O)c2c(=O)cc(C)oc2c1[C@H](C[C@@H](OC)C(=O)O)OC`, the IC50 in assay [12] worked out at 17.7 µM; in assay [13] it was 16 µM.

Take `COc1ccc2c(c1C/C=C(\C)CO)C=C(CO)OC2`: the concentration for half-maximal inhibition (IC50) in assay [5] (setting [16]), in assay [6], in assay [7] (setting [17]), in assay [8] and in assay [1] was 2.8 to 8.8 µM in each case.

Turning to `COc1cc2c(c3c1OC(C)(C)CC3=O)C[C@@H](C)OC2=O`, the results for the IC50 in [2] and in [10] were 4 µM and 3.8 µM, respectively.

With `CC(=O)OCC1=C[C@@H]2[C@H](CCO)[C@@]1(C)CCCC2(C)C`, the half-maximal inhibitory concentration (IC50) came to 19.1 µM in assay [5] (mcf7) and 33.2 µM in assay [7] (a549).

For the molecule `C/C(=C\Cc1c(O)ccc2c1C=C(CO)OC2)CO`, the half-maximal inhibitory concentration (IC50) in assay [5] (setting [16]), in assay [6], in [7] (setting [17]), in assay [8] and in [1] was 2.8 to 8.8 µM throughout.

On to `COC(=O)CCCN1C(=O)[C@]23O[C@]4(O)[C@@H](O)C(=O)N5C(C)(C)[C@H](Cc6cccc1c62)[C@H]3[C@@]54O`, for which the concentration for half-maximal inhibition (IC50) in [5] (setting [16]), in [6], in [8] and in assay [1] was less than 10 µM each time.

For the molecule `C[C@@H]1CC2=C(CO1)C(=O)[C@@](C)(O)[C@@H](O)C2`, the IC50 in assay [4] is 41.9 µM; in assay [3], 2.5 µM.

For `COC(=O)CCCN1C(=O)[C@@]23O[C@@]4(O)[C@@]5(O)[C@@H]2[C@@H](Cc2cccc1c23)C(C)(C)N5C(=O)[C@]4(O)[C@@H](C)O`, the 50% inhibitory concentration (IC50) in assay [5] (setting [16]), in assay [6], in assay [7] (setting [17]) and in assay [8] was less than 10 µM in each case.

For the origin of these results see ChEMBL document CHEMBL4411258, “Novel natural compounds from endophytic fungi with anticancer activity” (Eur J Med Chem, 2018).
